Assay results published in patent EP0081312A2, “Antibiotics, their preparation and use” (BEECHAM GROUP PLC, priority 1981, dated 1983).
In brackets after ≈: the same amount, converted by molar mass. Like-named read-outs stand apart in the source and are kept apart here.

How the values were obtained:
Test in all cases: MIC, concentration required to inhibit growth of bacteria
Assay type in all cases: cell-based
[1] = system: Streptococcus pyogenes CN10
Klebsiella aerogenes A = system: Klebsiella aerogenes A
Proteus vulgaris WO91 = system: Proteus vulgaris WO91
Proteus mirabilis C977 = system: Proteus mirabilis C977
[2] = system: Staphylococcus aureus Russell
[3] = system: Streptococcus pneumoniae CN33
Enterobacter cloacae N1 = system: Enterobacter cloacae N1
[4] = system: Staphylococcus aureux Oxford
Shigella sonnei MB 11967 = conditions: MB11967
[5] = system: Salmonella typhirmurium CT10
Proteus rettgeri WM16 = conditions: Providencia rettgeri
Serratia marcescens US20 = system: Serratia marcescens US20
Citrobacter freundii Ei = system: Citrobacter freundii Ei
[6] = system: Staphylococcus aureus 1517
Escherichia coli JT39 = system: Escherichia coli JT39
Bacillus Subtilis A = system: Bacillus Subtilis A
Pseudomonas aeruginosa A = system: Pseudomonas aeruginosa A
Proteus morganii 1580 = conditions: Morganella morganii
Streptococcus faecalis I = conditions: Enterococcus faecalis
Escherichia coli 0111 = system: Escherichia coli 0111
Escherichia coli ESS = system: Escherichia coli ESS
[7] = Klebsiella aerogenes A, read-out: MIC
[8] = Staphylococcus aureus Russell, read-out: MIC
[9] = Staphylococcus aureux Oxford, read-out: MIC
[10] = Proteus rettgeri WM16, read-out: MIC
[11] = Citrobacter freundii Ei, read-out: MIC
[12] = Bacillus Subtilis A, read-out: MIC
[13] = Pseudomonas aeruginosa A, read-out: MIC
[14] = Proteus morganii 1580, read-out: MIC
[15] = Streptococcus faecalis I, read-out: MIC

## C[C@@H](O)[C@H]1C(=O)N2C(C(=O)O)=C(S/C=C\C(=O)NCc3ccccc3)C[C@H]12 [Example 4, Sodium (5R,6S)-3-[(Z)-2 benzylaminocarbonylethenylthio]-6-[(R)-1-hydroxyethyl]-7-oxo-1-azabicyclo[3.2.0]hept-2-ene-2-carboxylate.]
[1]; read-out: MIC
  MIC: ≤ 0.1 µg/mL
Klebsiella aerogenes A; [7]
  MIC: ≤ 0.1 µg/mL
Proteus vulgaris WO91; read-out: MIC
  MIC: 0.4 µg/mL
Proteus mirabilis C977; read-out: MIC
  MIC: 0.8 µg/mL
[2]; [8]
  MIC: ≤ 0.1 µg/mL
[3]; read-out: MIC
  MIC: ≤ 0.1 µg/mL
Enterobacter cloacae N1; read-out: MIC
  MIC: 1.6 µg/mL
[4]; [9]
  MIC: ≤ 0.1 µg/mL
Shigella sonnei MB 11967
  MIC: 0.4 µg/mL
[5]
  MIC: 0.2 µg/mL
Proteus rettgeri WM16; [10]
  MIC: 3.1 µg/mL
Serratia marcescens US20; read-out: MIC
  MIC: 0.8 µg/mL
Citrobacter freundii Ei; [11]
  MIC: 0.8 µg/mL
[6]; read-out: MIC
  MIC: 6.2 µg/mL
Escherichia coli JT39; read-out: MIC
  MIC: ≤ 0.1 µg/mL
Bacillus Subtilis A; [12]
  MIC: ≤ 0.1 µg/mL
Pseudomonas aeruginosa A; [13]
  MIC: 50 µg/mL
Proteus morganii 1580; [14]
  MIC: 1.6 µg/mL
Streptococcus faecalis I; [15]
  MIC: 0.4 µg/mL
Escherichia coli 0111
  MIC: 0.2 µg/mL
Escherichia coli ESS
  MIC: ≤ 0.1 µg/mL

## CC(O)C1C(=O)N2C(C(=O)[O-])=C(S/C=C/C(N)=O)CC12.[Na+] (stereo not shown) [Example 5, Sodium 3-[E-2-carbamoylethenylthio]-6-[1-hydroxyethyl]-7-oxo-1-azabicyclo[3.2.0]hept-2-ene-2-carboxylate]
[1]
  MIC: 0.2 µg/mL
Klebsiella aerogenes A; Klebsiella aerogenes
  MIC: 1.6 µg/mL
Proteus vulgaris WO91
  MIC: 6.2 µg/mL
Proteus mirabilis C977
  MIC: 3.1 µg/mL
[2]; Staphylococcus aureus
  MIC: 1.6 µg/mL
[3]
  MIC: ≤ 0.1 µg/mL
Enterobacter cloacae N1
  MIC: 1.6 µg/mL
[4]; Staphylococcus
  MIC: 0.8 µg/mL
Shigella sonnei MB 11967
  MIC: 1.6 µg/mL
[5]
  MIC: 1.6 µg/mL
Proteus rettgeri WM16; WM16
  MIC: 6.2 µg/mL
Serratia marcescens US20
  MIC: 3.1 µg/mL
Citrobacter freundii Ei; Citrobacter freundii
  MIC: 1.6 µg/mL
[6]
  MIC: 50 µg/mL
Escherichia coli JT39
  MIC: 0.8 µg/mL
Bacillus Subtilis A; Bacillus subtilis
  MIC: 0.2 µg/mL
Pseudomonas aeruginosa A; Pseudomonas aeruginosa
  MIC: > 100 µg/mL
Proteus morganii 1580; 1580
  MIC: 6.2 µg/mL
Streptococcus faecalis I
  MIC: 6.2 µg/mL
Escherichia coli 0111
  MIC: 0.4 µg/mL
Escherichia coli ESS
  MIC: 0.4 µg/mL

## CC(O)C1C(=O)N2C(C(=O)[O-])=C(S/C=C\C(N)=O)CC12.[Na+] (stereo not shown) [Example 6, Sodium 3-[Z-2-carbamoylethenylthio]-6-[1-hydroxyethyl]-7-oxo-1-azabicyclo[3.2.0]hept-2-ene-2-carboxylate]
[1]
  MIC: 3.1 µg/mL
Klebsiella aerogenes A; Klebsiella aerogenes
  MIC: 6.2 µg/mL
Proteus vulgaris WO91
  MIC: 25 µg/mL
Proteus mirabilis C977
  MIC: 50 µg/mL
[2]; Staphylococcus aureus
  MIC: 3.1 µg/mL
Enterobacter cloacae N1
  MIC: 25 µg/mL
[4]; Staphylococcus
  MIC: 1.6 µg/mL
Shigella sonnei MB 11967
  MIC: 12.5 µg/mL
[5]
  MIC: 6.2 µg/mL
Proteus rettgeri WM16; WM16
  MIC: 50 µg/mL
Serratia marcescens US20
  MIC: 12.5 µg/mL
Citrobacter freundii Ei; Citrobacter freundii
  MIC: 50 µg/mL
[6]
  MIC: 100 µg/mL
Escherichia coli JT39
  MIC: 12.5 µg/mL
Bacillus Subtilis A; Bacillus subtilis
  MIC: 1.6 µg/mL
Pseudomonas aeruginosa A; Pseudomonas aeruginosa
  MIC: > 100 µg/mL
Proteus morganii 1580; 1580
  MIC: 50 µg/mL
Streptococcus faecalis I
  MIC: 50 µg/mL
Escherichia coli 0111
  MIC: 6.2 µg/mL
Escherichia coli ESS
  MIC: 3.1 µg/mL

## C[C@H](O)[C@@H]1C(=O)N2C(C(=O)[O-])=C(S/C=C\C(=O)NCc3ccccc3)C[C@H]12.[Na+] [Example 2, Sodium (5R,6R)-3-[(Z)-2 benzylaminocarbonylethenylthio]-6-[(S)-1-hydroxyethyl]-7-oxo-1-azabicyclo[3.2.0]hept-2-ene-2-carboxylate]
[1]
  MIC: ≤ 0.1 µg/mL
Klebsiella aerogenes A; Klebsiella aerogenes
  MIC: 0.2 µg/mL
Proteus vulgaris WO91
  MIC: 0.2 µg/mL
Proteus mirabilis C977
  MIC: ≤ 0.1 µg/mL
[2]; Staphylococcus aureus
  MIC: ≤ 0.1 µg/mL
Enterobacter cloacae N1
  MIC: 0.2 µg/mL
[4]; Staphylococcus
  MIC: ≤ 0.1 µg/mL
Shigella sonnei MB 11967
  MIC: ≤ 0.1 µg/mL
[5]
  MIC: ≤ 0.1 µg/mL
Proteus rettgeri WM16; WM16
  MIC: 0.4 µg/mL
Serratia marcescens US20
  MIC: 0.4 µg/mL
Citrobacter freundii Ei; Citrobacter freundii
  MIC: ≤ 0.1 µg/mL
[6]
  MIC: 1.6 µg/mL
Escherichia coli JT39
  MIC: 0.2 µg/mL
Bacillus Subtilis A; Bacillus subtilis
  MIC: ≤ 0.1 µg/mL
Pseudomonas aeruginosa A; Pseudomonas aeruginosa
  MIC: 25 µg/mL
Proteus morganii 1580; 1580
  MIC: 0.8 µg/mL
Streptococcus faecalis I
  MIC: 0.2 µg/mL
Escherichia coli 0111
  MIC: 0.2 µg/mL
Escherichia coli ESS
  MIC: ≤ 0.1 µg/mL

## C[C@@H](OC=O)[C@H]1C(=O)N2C(C(=O)[O-])=C(S/C=C\C(=O)NCc3ccccc3)C[C@H]12.[Na+] [Example 3, Sodium (5R,6S)-3-[(Z)-2-benzylaminocarbonylethenylthio]-6-[(R)-1-formyloxyethyl]-7-oxo-1-azabicyclo[3.2.0]hept-2-ene-2-carboxylate]
[1]
  MIC: 0.8 µg/mL
Klebsiella aerogenes A; Klebsiella aerogenes
  MIC: 0.4 µg/mL
Proteus vulgaris WO91
  MIC: 0.4 µg/mL
Proteus mirabilis C977
  MIC: 1.6 µg/mL
[3]
  MIC: 0.8 µg/mL
Enterobacter cloacae N1
  MIC: 3.1 µg/mL
[4]; Staphylococcus
  MIC: ≤ 0.1 µg/mL
Shigella sonnei MB 11967
  MIC: 1.6 µg/mL
[5]
  MIC: 0.4 µg/mL
Proteus rettgeri WM16; WM16
  MIC: 3.1 µg/mL
Serratia marcescens US20
  MIC: 3.1 µg/mL
Citrobacter freundii Ei; Citrobacter freundii
  MIC: 3.1 µg/mL
[6]
  MIC: 3.1 µg/mL
Escherichia coli JT39
  MIC: 0.4 µg/mL
Bacillus Subtilis A; Bacillus subtilis
  MIC: ≤ 0.1 µg/mL
Pseudomonas aeruginosa A; Pseudomonas aeruginosa
  MIC: 50 µg/mL
Proteus morganii 1580; 1580
  MIC: 6.2 µg/mL
Streptococcus faecalis I
  MIC: 0.8 µg/mL
Escherichia coli 0111
  MIC: 0.8 µg/mL
Escherichia coli ESS
  MIC: 0.4 µg/mL

## C[C@H](O)[C@@H]1C(=O)N2C(C(=O)O)=C(S/C=C\C(=O)N(C(=O)NC3CCCCC3)C3CCCCC3)C[C@H]12 [Example 1]
Klebsiella aerogenes A; [7]
  MIC: 25 µg/mL (≈ 49.4 µM)
Proteus vulgaris WO91; read-out: MIC
  MIC: 25 µg/mL (≈ 49.4 µM)
Proteus mirabilis C977; read-out: MIC
  MIC: 50 µg/mL (≈ 98.9 µM)
[2]; [8]
  MIC: 0.8 µg/mL (≈ 1.58 µM)
Enterobacter cloacae N1; read-out: MIC
  MIC: 50 µg/mL (≈ 98.9 µM)
[4]; [9]
  MIC: 0.4 µg/mL (≈ 0.791 µM)
Shigella sonnei MB 11967
  MIC: 25 µg/mL (≈ 49.4 µM)
[5]
  MIC: 25 µg/mL (≈ 49.4 µM)
Proteus rettgeri WM16; [10]
  MIC: 50 µg/mL (≈ 98.9 µM)
Serratia marcescens US20; read-out: MIC
  MIC: 25 µg/mL (≈ 49.4 µM)
Citrobacter freundii Ei; [11]
  MIC: 12.5 µg/mL (≈ 24.7 µM)
[6]; read-out: MIC
  MIC: 6.2 µg/mL (≈ 12.3 µM)
Escherichia coli JT39; read-out: MIC
  MIC: 50 µg/mL (≈ 98.9 µM)
Bacillus Subtilis A; [12]
  MIC: ≤ 0.1 µg/mL
Pseudomonas aeruginosa A; [13]
  MIC: > 100 µg/mL
Proteus morganii 1580; [14]
  MIC: 25 µg/mL (≈ 49.4 µM)
Streptococcus faecalis I; [15]
  MIC: 0.8 µg/mL (≈ 1.58 µM)
Escherichia coli 0111
  MIC: 25 µg/mL (≈ 49.4 µM)
Escherichia coli ESS
  MIC: 1.6 µg/mL (≈ 3.16 µM)
